Structures are written as SMILES.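 Each compound was tested at five concentrations against cells in 96-well plates for 48 hours. Definition used: TGI = concentration required for complete inhibition of growth.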

Test systems include MDA-MB-231 breast; COLO 205 colon; SK-MEL-28 melanoma; KM12 colon; OVCAR-5 ovarian; K-562 leukemia; HCC-2998 colon; MOLT-4 leukemia; SNB-19 CNS; HS 578T breast; NCI-H460 lung; CCRF-CEM leukemia.
Common to all, as to test: NCI-60 cell line screen, 48 h

In the case of `CC1=C(C#N)C(=C(C#N)C#N)OC1(C)Cc1ccccc1` (stereo not drawn), the TGI in the assay with MDA-MB-231 breast was over 100 µM; in the assay on COLO 205 colon, 43 µM; in the assay with SK-MEL-28 melanoma, over 100 µM; in the assay with KM12 colon, over 100 µM; in the assay with OVCAR-5 ovarian, over 100 µM; in the assay with K-562 leukemia, over 100 µM. The TGI with HCC-2998 colon was 89.6 µM; in the assay on MOLT-4 leukemia, 67.3 µM; in the assay with SNB-19 CNS, over 100 µM; in the assay with HS 578T breast it was over 100 µM.
Consider `FC1(F)[Se]C2C3CCC(C3)C2C1(F)F` (stereo not drawn), for which the TGI in the assay with MDA-MB-231 breast, with COLO 205 colon, with SK-MEL-28 melanoma, with KM12 colon, with OVCAR-5 ovarian and in the assay on NCI-H460 lung was over 100 µM throughout. In addition, the TGI in the assay on HCC-2998 colon, in the assay with MOLT-4 leukemia, in the assay on SNB-19 CNS and with HS 578T breast was over 100 µM each time.
Consider `CC(/C=C/C(=O)NO)=C\C(C)C(=O)c1ccc(N(C)C)cc1` (stereo not drawn), for which the TGI with MDA-MB-231 breast was 0.0538 µM; in the assay on COLO 205 colon it was 0.0854 µM; in the assay with SK-MEL-28 melanoma, 14.8 µM; in the assay on KM12 colon it was 0.932 µM; in the assay on OVCAR-5 ovarian, 4.6 µM; with NCI-H460 lung, 0.0658 µM. Besides, the values for the TGI in the assay with HCC-2998 colon, in the assay with SNB-19 CNS and in the assay with HS 578T breast were under 0.0113 µM, 0.654 µM and 0.133 µM, respectively.
For `N#CC12C(=O)NC(=O)C1(C#N)C1C=CC2CC1` (stereo not drawn), the TGI in the assay with COLO 205 colon, in the assay with SK-MEL-28 melanoma, in the assay with KM12 colon, in the assay on OVCAR-5 ovarian, in the assay with CCRF-CEM leukemia and in the assay with MOLT-4 leukemia was over 100 µM each time. Moreover, the TGI in the assay with SNB-19 CNS and with HS 578T breast was over 100 µM in each case.
Turning to `CC(=O)Nc1ccc2c3c(cc(O)c2c1)N(C(=O)CCCC(=O)N1CC(CCl)c2c1cc(O)c1cc(NC(C)=O)ccc21)CC3CCl` (stereo not drawn), the TGI with MDA-MB-231 breast is under 0.01 µM; in the assay on COLO 205 colon it was 0.0215 µM; in the assay with SK-MEL-28 melanoma, over 100 µM; with KM12 colon it was 11.6 µM; with OVCAR-5 ovarian, 0.276 µM; in the assay on NCI-H460 lung it was over 100 µM. For the same molecule, the TGI was over 100 µM with K-562 leukemia and under 0.01 µM with CCRF-CEM leukemia.
With `COc1ccccc1Nc1nc2c([nH]1)c(=O)n(C)c(=O)n2C`, the TGI with MDA-MB-231 breast, in the assay on COLO 205 colon, with SK-MEL-28 melanoma, with KM12 colon, in the assay with K-562 leukemia and in the assay on HCC-2998 colon was over 10 µM throughout. For the same molecule, the TGI in the assay on CCRF-CEM leukemia and in the assay with MOLT-4 leukemia was over 10 µM throughout.
For the molecule `CSC12c3cc(C)n(-c4ccc([N+](=O)[O-])cc4)c3CC(C)(C)CN1C(=O)C2Oc1ccccc1` (stereo not drawn), the TGI with MDA-MB-231 breast, with COLO 205 colon, with SK-MEL-28 melanoma, with KM12 colon, in the assay with OVCAR-5 ovarian and with NCI-H460 lung was over 100 µM throughout. The TGI with K-562 leukemia, with HCC-2998 colon, with CCRF-CEM leukemia, in the assay on MOLT-4 leukemia and in the assay with SNB-19 CNS was over 100 µM in each case.
For `CC(C)(O)C(O)COc1c2c(cc3oc(=O)ccc13)OCO2` (stereo not drawn), the TGI with COLO 205 colon, in the assay on SK-MEL-28 melanoma, in the assay with KM12 colon, in the assay on OVCAR-5 ovarian, in the assay with NCI-H460 lung and in the assay on K-562 leukemia was over 100 µM in each case. Also, the TGI in the assay on HCC-2998 colon, in the assay with CCRF-CEM leukemia, in the assay on MOLT-4 leukemia and in the assay with SNB-19 CNS was over 100 µM each time.
With `O=C1/C(=C\c2ccc(Cl)cc2)N=C(c2ccccc2)N1n1c(=O)cn[nH]c1=S`, the TGI was over 100 µM in the assay with COLO 205 colon; over 100 µM in the assay on SK-MEL-28 melanoma; over 100 µM in the assay on KM12 colon; over 100 µM in the assay on OVCAR-5 ovarian; over 100 µM in the assay with NCI-H460 lung; 54.9 µM with K-562 leukemia. Also, the TGI in the assay with HCC-2998 colon was over 100 µM; with CCRF-CEM leukemia, 15.7 µM; with MOLT-4 leukemia it was 53.3 µM; with SNB-19 CNS it was over 100 µM.
`COc1cc(/C=C2\C(=O)N(C(=O)Cc3ccccc3)N=C2C)cc(OC)c1OC`: the TGI with COLO 205 colon, with SK-MEL-28 melanoma, with KM12 colon, with OVCAR-5 ovarian, in the assay with NCI-H460 lung and in the assay on K-562 leukemia was over 100 µM throughout. The TGI in the assay on HCC-2998 colon, with CCRF-CEM leukemia, in the assay on MOLT-4 leukemia and in the assay on SNB-19 CNS was over 100 µM each time.
As for `CC(C)CC(NC(=O)C(C)(CI)Cc1ccccc1)C(=O)Nc1ccccc1` (stereo not drawn), the TGI in the assay with MDA-MB-231 breast, in the assay on COLO 205 colon, in the assay with KM12 colon, in the assay on OVCAR-5 ovarian, with NCI-H460 lung and with K-562 leukemia was over 100 µM throughout. Besides, the TGI with HCC-2998 colon, in the assay on CCRF-CEM leukemia, in the assay on MOLT-4 leukemia and with SNB-19 CNS was over 100 µM in each case.
Turning to `CCOCCOCCOCc1nc(C#N)c(N)o1`, the TGI with MDA-MB-231 breast, in the assay with COLO 205 colon, with SK-MEL-28 melanoma, with KM12 colon, in the assay on OVCAR-5 ovarian and in the assay on NCI-H460 lung was over 100 µM throughout. Besides, the TGI with K-562 leukemia, in the assay with HCC-2998 colon, with CCRF-CEM leukemia and with MOLT-4 leukemia was over 100 µM throughout.
`COc1cc(C2C(Cl)C(=O)N2NC(=O)Cc2ccccc2)cc(Br)c1O` (stereo not drawn): the TGI with COLO 205 colon, with SK-MEL-28 melanoma, in the assay on KM12 colon, in the assay on OVCAR-5 ovarian, in the assay with NCI-H460 lung and in the assay with K-562 leukemia was over 100 µM in each case. Also, the TGI in the assay on HCC-2998 colon, with CCRF-CEM leukemia, in the assay with MOLT-4 leukemia and with SNB-19 CNS was over 100 µM in each case.
Consider `O=c1oc2ccc3ccccc3c2cc1-c1nnc(Nc2ccccc2)s1`, for which the TGI is 35.1 µM with MDA-MB-231 breast; over 100 µM in the assay on KM12 colon; over 100 µM in the assay on OVCAR-5 ovarian; 42.3 µM in the assay on NCI-H460 lung; over 100 µM in the assay on K-562 leukemia; over 100 µM with HCC-2998 colon. Further, the TGI was over 100 µM in the assay with MOLT-4 leukemia, 65.4 µM with SNB-19 CNS and over 100 µM in the assay with HS 578T breast.

For the origin of these results see PubChem BioAssay (NCI).
